According to the supplement of paper PMC4862054:

What was measured:
Conditions in all cases: incubation time: 72 h
CAL-51 [1] = assay: normalised response (% of control), CellTox Green; higher = less cell death (100 = DMSO, 0 = benzethonium chloride kill control)
In short: (§1)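 Breast cancer cell lines, seeded at 20 µl suspension per well, were incubated for 72 h in 384-well plates containing compound at 5 concentrations. These concentrations rose in 10-fold steps over a 10,000-fold range set for each compound. CellTox Green fluorescence (485/520 nm) was read, then CellTiter-Glo luminescence after 10 min at room temperature, and each plate was normalised to 0.1 % DMSO (100) and a positive kill control (0). Values are normalised signals, each at one concentration.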

BT-549 [2] = assay: as above
In short: as §1

HCC1599 [3] = assay: as above
In short: as §1

HDQ-P1 [4] = assay: as above
In short: as §1

Hs578T [5] = assay: as above
In short: as §1

DU-4475 [6] = assay: as above
In short: as §1

MDA-MB-231 [7] = assay: as above
In short: as §1

CAL-85-1 [8] = assay: as above
In short: as §1

MDA-MB-468 [9] = assay: as above
In short: as §1

BT-474 [10] = assay: as above
In short: as §1

MDA-MB-453 [11] = assay: as above
In short: as §1

MFM-223 [12] = assay: as above
In short: as §1

MCF-10A [13] = assay: as above
In short: as §1

CAL-120 [14] = assay: as above
In short: as §1

HCC1143 [15] = assay: as above
In short: as §1

HCC1937 [16] = assay: as above
In short: as §1

MDA-MB-436 [17] = assay: as above
In short: as §1

CAL-51 [18] = assay: normalised response (% of control), CellTiter-Glo; higher = more viable cells (100 = DMSO, 0 = benzethonium chloride kill control)
Method: (§2)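 DSRT, 72 h incubation, CellTox Green / CellTiter-Glo readout. Signal is normalised to DMSO and benzethonium chloride controls. Value is the normalised response at dose 3.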

BT-549 [19] = assay: as above
Method: as §2

HCC1599 [20] = assay: as above
Method: as §2

HDQ-P1 [21] = assay: as above
Method: as §2

Hs578T [22] = assay: as above
Method: as §2

DU-4475 [23] = assay: as above
Method: as §2

MDA-MB-231 [24] = assay: as above
Method: as §2

CAL-148 [25] = assay: as above
Method: as §2

CAL-85-1 [26] = assay: as above
Method: as §2

MDA-MB-468 [27] = assay: as above
Method: as §2

BT-474 [28] = assay: as above
Method: as §2

MDA-MB-453 [29] = assay: as above
Method: as §2

SK-BR-3 = assay: as above
Method: as §2

MFM-223 [30] = assay: as above
Method: as §2

MCF-10A [31] = assay: as above
Method: as §2

CAL-120 [32] = assay: as above
Method: as §2

HCC1143 [33] = assay: as above
Method: as §2

HCC1937 [34] = assay: as above
Method: as §2

MDA-MB-436 [35] = assay: as above
Method: as §2

CAL-148 [36] = assay: normalised response (% of control), CellTox Green; higher = less cell death (100 = DMSO, 0 = benzethonium chloride kill control)
In short: as §1

Row | Compound | normalised response (CAL-51 [1]) [%] | normalised response (BT-549 [2]) [%] | normalised response (HCC1599 [3]) [%] | normalised response (HDQ-P1 [4]) [%] | normalised response (Hs578T [5]) [%] | normalised response (DU-4475 [6]) [%] | normalised response (MDA-MB-231 [7]) [%] | normalised response (CAL-85-1 [8]) [%] | normalised response (MDA-MB-468 [9]) [%] | normalised response (BT-474 [10]) [%] | normalised response (MDA-MB-453 [11]) [%] | normalised response (MFM-223 [12]) [%] | normalised response (MCF-10A [13]) [%] | normalised response (CAL-120 [14]) [%] | normalised response (HCC1143 [15]) [%] | normalised response (HCC1937 [16]) [%] | normalised response (MDA-MB-436 [17]) [%] | normalised response (CAL-51 [18]) [%] | normalised response (BT-549 [19]) [%] | normalised response (HCC1599 [20]) [%] | normalised response (HDQ-P1 [21]) [%] | normalised response (Hs578T [22]) [%] | normalised response (DU-4475 [23]) [%] | normalised response (MDA-MB-231 [24]) [%] | normalised response (CAL-148 [25]) [%] | normalised response (CAL-85-1 [26]) [%] | normalised response (MDA-MB-468 [27]) [%] | normalised response (BT-474 [28]) [%] | normalised response (MDA-MB-453 [29]) [%] | normalised response (SK-BR-3) [%] | normalised response (MFM-223 [30]) [%] | normalised response (MCF-10A [31]) [%] | normalised response (CAL-120 [32]) [%] | normalised response (HCC1143 [33]) [%] | normalised response (HCC1937 [34]) [%] | normalised response (MDA-MB-436 [35]) [%] | normalised response (CAL-148 [36]) [%]
1 | O=NN(CCCl)C(=O)NC1CCCCC1 [Lomustine] (100 nM) | 109 | 77.1 | 101 | 96.1 | 102 | 103 | 110 | 113 | 103 | 101 | 106 | 105 | 103 | 102 | 104 | 96.5 | 108 | 104 | 103 | 90.1 | 104 | 99.6 | 107 | 99.4 | 91.5 | 95.6 | 96.1 | 104 | 101 | 102 | 110 | 98.4 | 97.7 | 104 | 89.4 | 101 | 
2 | CCCCCOC(=O)Nc1nc(=O)n([C@@H]2O[C@H](C)[C@@H](O)[C@H]2O)cc1F [Capecitabine] (100 nM) | 105 | 89.4 | 95.2 | 105 |  | 99.9 | 104 | 105 | 127 | 91.4 | 97.3 | 104 | 101 | 99.9 | 87.6 | 103 | 95.3 | 99.5 | 102 | 98.3 | 97.5 | 98.8 | 106 | 99.5 | 114 | 95.4 | 103 | 98.7 | 103 | 100 | 102 | 95.5 | 103 | 98.7 | 97.2 | 102 | 99.1
3 | C[C@@H]1C[C@H]2[C@@H]3CCC4=CC(=O)C=C[C@]4(C)[C@@]3(F)[C@@H](O)C[C@]2(C)[C@@]1(O)C(=O)CO [Dexamethasone] (100 nM) | 99.4 | 101 | 96 |  | 114 | 96.4 |  | 107 | 97.2 | 96.4 | 95.5 | 95.7 | 97 | 96.7 | 101 | 68 | 67.3 | 101 | 103 | 95.2 | 84.8 | 92.5 | 102 | 154 | 91.2 | 113 | 103 | 145 | 83.8 | 88.4 | 95.7 | 84.3 | 72.8 | 101 | 99 | 101 | 97.2
4 | COc1cc2c(N3CCN(C(=O)Nc4ccc(OC(C)C)cc4)CC3)ncnc2cc1OCCCN1CCCCC1 [Tandutinib] (10 nM) | 95 | 98.8 | 96.8 | 90.3 | 69.4 | 98 | 99.9 | 99 | 63.1 | 84.8 | 90.3 | 78.6 | 104 | 87.9 | 86.5 | 81.3 | 101 | 69.2 | 104 | 106 | 99.7 | 101 | 97.1 | 103 | 102 | 109 | 103 | 98.9 | 96.3 | 100 | 100 | 97.8 | 100 | 98.1 | 97.4 | 106 | 
